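Five concentrations, 48 hours, 96-well plates. GI50 marks 50% less growth.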 The source made the active and inactive calls. Rule as the data show it: active = GI50 up to about 1.1 µM and inactive = higher.

Among the test systems are SW-620; Malme-3M; UACC-62; TK-10; SK-MEL-28; SF-295; MDA-MB-231; LOX IMVI; SN12C; MOLT-4; SNB-19; KM12; OVCAR-8; HT-29; SNB-75; HCT-15; RPMI-8226; OVCAR-3; SK-MEL-2; A498.
Common to all, as to assay: NCI anticancer screen, dose series, 48 h

In the case of `NC1=NCC(CN2CCCCC2)O1` (configuration not stated), the GI50 in the experiment with SW-620, in the experiment on Malme-3M, in the experiment with UACC-62, with TK-10, with SK-MEL-28 and in the experiment with SF-295 was > 100 µM (inactive) in each case. The GI50 with MDA-MB-231, in the experiment with LOX IMVI, in the experiment on SN12C, in the experiment on MOLT-4, with SNB-19 and in the experiment on KM12 was > 100 µM (inactive) in each case. For the same molecule, the GI50 in the experiment with OVCAR-8 was > 100 µM (inactive); with HT-29, > 100 µM (inactive); in the experiment on SNB-75, > 100 µM (inactive); in the experiment with HCT-15, over 100 µM; in the experiment on RPMI-8226, > 100 µM (inactive); in the experiment on OVCAR-3 it was > 100 µM (inactive).

`COC(=O)c1cc(/C=C/C(=O)Cc2ccccc2)cn1S(=O)(=O)c1ccccc1`: the GI50 in the experiment on Malme-3M, with UACC-62, with TK-10, in the experiment on SF-295, in the experiment with MDA-MB-231 and in the experiment on LOX IMVI was > 100 µM (inactive) in each case. The GI50 in the experiment on SK-MEL-2, in the experiment on SN12C, with MOLT-4, in the experiment on SNB-19, in the experiment with KM12 and in the experiment with OVCAR-8 was > 100 µM (inactive) each time. Also, the GI50 in the experiment on HT-29 is > 100 µM (inactive); in the experiment with SNB-75, > 100 µM (inactive); with HCT-15, 7.38 µM; with OVCAR-3 it was > 100 µM (inactive).

Take `COc1cc(/C=C2\C[C@H]3[C@@H]4CC=C5C[C@@H](OC(C)=O)CC[C@]5(C)[C@H]4CC[C@]3(C)\C2=N\O)cc(OC)c1OC`: the GI50 in the experiment on SW-620 is 7 µM (inactive); in the experiment with Malme-3M, 8.95 µM (inactive); in the experiment with UACC-62, 6.73 µM (inactive); in the experiment with TK-10, 13.7 µM (inactive); in the experiment with SK-MEL-28, 5.58 µM (inactive); in the experiment on SF-295, 3.21 µM (inactive). For the same molecule, the GI50 in the experiment with MDA-MB-231 was 15.1 µM (inactive); with LOX IMVI it was 4.32 µM (inactive); in the experiment with SK-MEL-2, 7.01 µM (inactive); with SN12C, 6.37 µM (inactive); in the experiment on MOLT-4, 2.36 µM (inactive); with SNB-19 it was 29.9 µM (inactive). Also, the GI50 with KM12 was 4.06 µM (inactive); in the experiment on OVCAR-8, 4.29 µM (inactive); in the experiment with HT-29, 5.15 µM (inactive); in the experiment with SNB-75, 2.5 µM (inactive); in the experiment with HCT-15 it was 4.42 µM; in the experiment with RPMI-8226, 0.56 µM (active). The GI50 in the experiment on OVCAR-3 was 6.27 µM (inactive).

As to `CC1CC(=O)N2CCCNC2=C1C#N` (configuration not stated), the GI50 in the experiment on SW-620, in the experiment with Malme-3M, with UACC-62, with TK-10, in the experiment on SK-MEL-28 and in the experiment on SF-295 was > 100 µM (inactive) each time. Moreover, the GI50 in the experiment on MDA-MB-231, in the experiment with LOX IMVI, in the experiment on SK-MEL-2, with SN12C, with MOLT-4 and in the experiment on SNB-19 was > 100 µM (inactive) throughout. The GI50 in the experiment with KM12 was > 100 µM (inactive); with OVCAR-8, > 100 µM (inactive); in the experiment on HT-29, > 100 µM (inactive); in the experiment on SNB-75 it was > 100 µM (inactive); in the experiment with HCT-15 it was over 100 µM; in the experiment on RPMI-8226 it was > 100 µM (inactive). For the same molecule, the GI50 in the experiment with OVCAR-3 was > 100 µM (inactive).

As for `COc1ccc(/C=C2\Sc3nnc(CNc4ccc(Cl)cc4)n3N=C2c2cc(F)c(Cl)cc2Cl)cc1OC`, the GI50 with SW-620 was 15.8 µM (inactive); in the experiment with TK-10 it was 86.7 µM (inactive); in the experiment on SK-MEL-28 it was > 100 µM (inactive); with SF-295, > 100 µM (inactive); in the experiment with MDA-MB-231, > 100 µM (inactive); in the experiment on LOX IMVI, 29.3 µM (inactive). Further, the GI50 in the experiment on SK-MEL-2 was > 100 µM (inactive); in the experiment on MOLT-4 it was 10.9 µM (inactive); in the experiment on KM12, 83.8 µM (inactive); in the experiment on A498, > 100 µM (inactive); in the experiment on OVCAR-8 it was 24.7 µM (inactive); with HT-29 it was 28.6 µM (inactive). Further, the GI50 was 15.9 µM with HCT-15, 7.57 µM (inactive) with RPMI-8226 and 48.1 µM (inactive) with OVCAR-3.

`COc1ccc2c(c1)CN1C(=N2)CSC1c1cccc(Br)c1` (configuration not stated): the GI50 in the experiment on SW-620 is 15.8 µM (inactive); with Malme-3M, 60.1 µM (inactive); in the experiment on UACC-62, 17.8 µM (inactive); in the experiment on TK-10 it was 59.8 µM (inactive); in the experiment on SK-MEL-28 it was 11.9 µM (inactive); in the experiment on SF-295, 30.5 µM (inactive). Moreover, the GI50 in the experiment on MDA-MB-231 was > 100 µM (inactive); with LOX IMVI it was 23.9 µM (inactive); in the experiment on SK-MEL-2, 24.2 µM (inactive); in the experiment on SN12C it was 20.4 µM (inactive); in the experiment on MOLT-4, 6.82 µM (inactive); with SNB-19 it was 47.3 µM (inactive). Moreover, the GI50 is 19.1 µM (inactive) in the experiment with KM12; 69.8 µM (inactive) in the experiment with OVCAR-8; 20 µM (inactive) in the experiment with HT-29; 14.9 µM (inactive) with SNB-75; 11 µM with HCT-15; 6.44 µM (inactive) with RPMI-8226.

As to `Nc1cc(CO)cc(Nc2nc3ccc(Cl)cc3c3[nH]c4ccccc4c23)c1`, the GI50 was 4.44 µM (inactive) with SW-620; 5.27 µM (inactive) in the experiment on Malme-3M; 1.85 µM (inactive) with UACC-62; 6.05 µM (inactive) in the experiment with TK-10; 3.56 µM (inactive) with SF-295; 2.55 µM (inactive) with MDA-MB-231. Moreover, the GI50 with SK-MEL-2 was 4.27 µM (inactive); in the experiment on SN12C, 2.89 µM (inactive); in the experiment on MOLT-4 it was 4.2 µM (inactive); with SNB-19, 4.32 µM (inactive); with KM12 it was 4.98 µM (inactive); with OVCAR-8, 4.28 µM (inactive). Moreover, the GI50 in the experiment on HT-29 was 3.64 µM (inactive); in the experiment with HCT-15, 3.92 µM; with RPMI-8226, 2.96 µM (inactive).

As to `C/C(=N\Nc1nc2ccccc2[nH]1)c1ccc2ccccc2n1`, the GI50 in the experiment with SW-620 is 3.58 µM (inactive); with Malme-3M, 2.4 µM (inactive); in the experiment with UACC-62, 2.6 µM (inactive); with TK-10, 3.04 µM (inactive); with SK-MEL-28, 3.79 µM (inactive); in the experiment with SF-295, 2.49 µM (inactive). Moreover, the GI50 in the experiment on MDA-MB-231 was 1.87 µM (inactive); in the experiment on LOX IMVI, 2.11 µM (inactive); in the experiment on SK-MEL-2 it was 1.67 µM (inactive); in the experiment on SN12C, 1.52 µM (inactive); with MOLT-4, 0.755 µM (active); in the experiment with SNB-19 it was 2.75 µM (inactive). In addition, the GI50 is 2.08 µM (inactive) with KM12; 3.33 µM (inactive) in the experiment on OVCAR-8; 0.948 µM (active) in the experiment with HT-29; 2.19 µM (inactive) with SNB-75; 1.29 µM with HCT-15; 0.897 µM (active) with RPMI-8226. In addition, the GI50 with OVCAR-3 is 0.592 µM (active).

Regarding `COc1ccc2[nH]c3c(c2c1)[C@H]1CCC(C(C)(C)C)C[C@H]1[C@H]1C(=O)N(c2ccccc2)C(=O)[C@@H]31` (some centres not stated), the GI50 with SW-620 is 20.2 µM (inactive); with Malme-3M, 15.8 µM (inactive); with UACC-62, 31 µM (inactive); in the experiment on TK-10, 22.6 µM (inactive); with SK-MEL-28 it was 44.3 µM (inactive); in the experiment on SF-295 it was 7.18 µM (inactive). Further, the GI50 in the experiment with LOX IMVI is 20.7 µM (inactive); in the experiment with SK-MEL-2 it was 20 µM (inactive); in the experiment with SN12C, 11.9 µM (inactive); with MOLT-4 it was 20.9 µM (inactive); in the experiment with SNB-19, 16.3 µM (inactive); in the experiment with KM12, > 43.4 µM (inactive). Besides, the GI50 in the experiment with A498 is 14.7 µM (inactive); in the experiment on OVCAR-8, 6.84 µM (inactive); in the experiment with HT-29 it was > 100 µM (inactive); in the experiment with SNB-75 it was 5.97 µM (inactive); with HCT-15 it was over 100 µM; with RPMI-8226 it was 33.3 µM (inactive). Further, in the experiment on OVCAR-3, the GI50 was 23.3 µM (inactive).

Consider `Cn1c(=N)n[n+]([O-])c2ccccc21`, for which the GI50 with SW-620 is 2.74 µM (inactive); in the experiment on Malme-3M, 2.34 µM (inactive); in the experiment with UACC-62, 1.75 µM (inactive); in the experiment on TK-10, 27.2 µM (inactive); with SF-295, 3.54 µM (inactive); with MDA-MB-231 it was 11.7 µM (inactive). Moreover, the GI50 with LOX IMVI was 2.59 µM (inactive); in the experiment with SK-MEL-2, 3.47 µM (inactive); in the experiment with SN12C, 2.13 µM (inactive); with MOLT-4, 1.87 µM (inactive); in the experiment with KM12 it was 19 µM (inactive); with OVCAR-8, 13.2 µM (inactive). The GI50 in the experiment on HT-29 was 3.1 µM (inactive); in the experiment with SNB-75, 3.78 µM (inactive); in the experiment on OVCAR-3 it was 1.55 µM (inactive).

Turning to `CNc1ccc2ncccc2c1[N+](=O)[O-]`, the GI50 in the experiment on SW-620, in the experiment with Malme-3M, in the experiment on UACC-62, in the experiment on TK-10, in the experiment with SK-MEL-28 and in the experiment with SF-295 was > 100 µM (inactive) each time. For the same molecule, the GI50 in the experiment on LOX IMVI, with SK-MEL-2, with SN12C, in the experiment on MOLT-4, in the experiment on SNB-19 and in the experiment with KM12 was > 100 µM (inactive) each time. The GI50 with A498 is > 100 µM (inactive); in the experiment on OVCAR-8, > 100 µM (inactive); in the experiment on HT-29 it was > 100 µM (inactive); in the experiment on SNB-75 it was > 100 µM (inactive); in the experiment with HCT-15 it was over 100 µM; in the experiment with RPMI-8226 it was > 100 µM (inactive). In the experiment with OVCAR-3, the GI50 is > 100 µM (inactive).

These data come from ChEMBL document CHEMBL1201862, “PubChem BioAssay data set” (2004).
